{"source": "patent US9980936B2", "about": "“BH4 antagonists and methods related thereto” (Emory University, priority 2014, dated 2018)", "key": {"[1]": {"tested_on": "Bcl2 and Bax in H460 xenograft tumor tissues", "experiment": "QD-IHF of Bcl2 and Bax conformational change in tumor tissues", "assay_type": "in vivo, mice", "conditions": "14 days", "text": "Quantum dot-based immunohistofluorescence (QD-IHF) technology has recently been developed as a valuable tool for simultaneous and concurrent immunostaining of multiple biomarkers in formalin-fixed paraffin-embedded (FFPE) tissues, thereby allowing for quantification of several biomarkers simultaneously on the same tissue slide. To determine whether BDA-366 induces Bcl2 conformation change by exposure of its BH3 domain in tumor tissues and whether the BH3 domain-exposed Bcl2 activates Bax, conformational changes in both Bcl2 and Bax were simultaneously analyzed by QD-IHF on the same tissue slide."}, "[2]": {"target": "T1, purified, human Bcl2 protein (Homo sapiens, UniProt P10415)", "T1 sequence (P10415 whole entry, the tested form may be a part)": "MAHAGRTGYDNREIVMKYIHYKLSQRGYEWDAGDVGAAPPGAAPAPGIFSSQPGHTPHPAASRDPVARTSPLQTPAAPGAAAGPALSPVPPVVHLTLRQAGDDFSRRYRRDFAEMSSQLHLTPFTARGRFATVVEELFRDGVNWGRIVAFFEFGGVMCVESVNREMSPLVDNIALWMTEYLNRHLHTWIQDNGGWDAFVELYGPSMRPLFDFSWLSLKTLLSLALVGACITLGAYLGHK", "experiment": "in vitro cell-free Bcl2 conformational change assay (IP with anti-Bcl2/BH3 domain antibody)", "assay_type": "biochemical", "procedure": "To test whether BDA-2 directly induces Bcl2 conformational change, an in vitro cell-free assay was employed. Purified recombinant Bcl2 protein was incubated with increasing concentrations of BDA-2 in lysis buffer, followed by immunoprecipitation (IP) using the anti-Bcl2/BH3 domain antibody."}, "Bcl-XL": {"target": "Bcl-XL (Homo sapiens, UniProt Q07817)", "sequence (Q07817 whole entry, species assumed)": "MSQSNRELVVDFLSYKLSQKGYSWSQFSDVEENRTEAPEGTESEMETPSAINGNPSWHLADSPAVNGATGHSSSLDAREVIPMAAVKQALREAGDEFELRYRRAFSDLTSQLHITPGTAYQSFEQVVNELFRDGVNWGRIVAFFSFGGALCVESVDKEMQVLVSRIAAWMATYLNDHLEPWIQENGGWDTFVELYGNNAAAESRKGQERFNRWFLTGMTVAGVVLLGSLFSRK", "experiment": "binding to other Bcl2 family members"}, "[3]": {"target": "T1, purified, human Bcl2 protein", "experiment": "competition fluorescence polarization assay (FITC-QDCMWSGFSA peptide)", "assay_type": "binding", "conditions": "3 nM peptide, 6 nM Bcl2", "protocol": "Thus, the change of mP reflects the interaction between the fluorescent-labeled peptide and the Bcl2 protein. Data (i.e. mP value) can be imported into Prism 3.0 to determine the dissociation constant (Kd) and the binding range for each peptide.\nThis interaction between Bcl2 and the peptide forms the basis for the fluorescence polarization assay.\nThe plate was mixed on a shaker for 1 min and incubated at room temperature for an additional 15 min. The polarization, as defined as mP units, was measured at room temperature with a fluorescence microplate reader (Wallace, Calif.). A negative control (DMSO, 3 nM peptide and assay buffer) and a positive control (DMSO, 3 nM peptide, 6 nM Bcl2 and assay buffer) were used to determine the range of the assay."}, "[4]": {"tested_on": "D10A, N11A, R12A, E13A, M16A, K17A, H20A and D31A Bcl2 mutants", "experiment": "competitive fluorescence polarization, BH4 single-site mutants", "assay_type": "binding", "conditions": "single mutation at each individual residue", "text": "A panel of Bcl2 mutants were generated within the BH4 domain at the specific residues that were identified by the initial docking simulations, including D10A, N11A, R12A, E13A, M16A, K17A, H20A and D31A Bcl2 mutants. A compound Bcl2 mutant D10A/N11A/R12A/E13A (AAAA) was created. Recombinant proteins of these mutants were generated for BDA-2/Bcl2 binding analysis using a competitive fluorescence polarization. […] Second, WT and all Bcl2 mutants were exogenously overexpressed in H1299 cells that express undetectable levels of endogenous Bcl2."}, "H460 cells [5]": {"tested_on": "H460 cells", "experiment": "autophagy (LC3-II, GFP-LC3)", "assay_type": "cell-based", "procedure": "Bcl2 directly interacts with Beclin-1 and suppresses Beclin-1-dependent autophagy. Inhibition of Bcl2 by ABT-737 not only induces apoptosis but also autophagy. […] To test whether disruption of Bcl2 BH4 by BDA-2 stimulates autophagy, H460 cells were treated with BDA-366 (1 μM) for 24 h. […] To further quantify the level of autophagy, a GFP-LC3 construct was used to indicate autophagosomes."}, "SCLC cell lines": {"tested_on": "SCLC cell lines", "experiment": "growth of SCLC cell lines", "assay_type": "cell-based"}, "[6]": {"tested_on": "H1299 cells or isolated mitochondria", "experiment": "H1299 cells or isolated mitochondria expressing WT, ΔBH3 Bcl2 or vector: IP and Cyt c release", "assay_type": "cell-based", "procedure": "To further test whether the BH3 domain of Bcl2 is important for BDA-366 activation of Bax, purified recombinant WT and the BH3 deletion (ΔBH3) mutant Bcl2 proteins were incubated with purified Bax protein in the absence or presence of BDA-366, followed by IP with 6A7 antibody. […] To test this at the cellular or mitochondrial level, WT, ΔBH3 Bcl2 mutant and empty vector (pCIneo) were transfected into H1299 cells that express undetectable levels of endogenous Bcl2 but high levels of endogenous Bax. Cells or isolated mitochondria from these cells were treated with BDA-2, followed by IP with Bcl2 BH3 or 6A7 antibody, respectively.\nTo further test whether BDA-366 induces Cyt c release from mitochondria in a Bcl2 dependent fashion, mitochondria were isolated from H1299 cells expressing WT, ΔBH3 mutant Bcl2 or vector-only control. The isolated mitochondria were treated with BDA-366 (1 μM) for 30 min at 30° C. After centrifugation, Cyt c in the supernatant (i.e. Cyt c release) was analyzed by Western blot."}, "Bfl-1/A1": {"target": "Bfl-1/A1 (Homo sapiens, UniProt Q16548)", "sequence (Q16548 whole entry)": "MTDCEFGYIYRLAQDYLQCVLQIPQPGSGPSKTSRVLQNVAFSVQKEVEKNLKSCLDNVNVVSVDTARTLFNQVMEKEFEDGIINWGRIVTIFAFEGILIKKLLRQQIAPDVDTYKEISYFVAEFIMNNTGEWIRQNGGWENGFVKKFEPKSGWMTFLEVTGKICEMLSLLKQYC", "experiment": "binding to other Bcl2 family members"}, "Mc1-1": {"target": "Mc1-1 (Homo sapiens, UniProt Q07820)", "sequence (Q07820 whole entry)": "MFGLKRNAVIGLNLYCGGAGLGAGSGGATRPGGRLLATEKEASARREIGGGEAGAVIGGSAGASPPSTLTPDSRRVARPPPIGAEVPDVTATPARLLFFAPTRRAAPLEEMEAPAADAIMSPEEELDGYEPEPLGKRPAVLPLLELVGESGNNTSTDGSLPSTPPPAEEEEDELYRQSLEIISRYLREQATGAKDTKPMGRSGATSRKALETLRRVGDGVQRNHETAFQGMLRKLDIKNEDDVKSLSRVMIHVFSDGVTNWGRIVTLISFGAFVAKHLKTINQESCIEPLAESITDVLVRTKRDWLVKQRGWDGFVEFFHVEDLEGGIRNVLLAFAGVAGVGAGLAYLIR", "experiment": "binding to other Bcl2 family members"}, "[7]": {"tested_on": "normal small airway epithelial cell line (SAEC)", "experiment": "cell growth (SRB) and apoptosis (Annexin V/PI), normal cells", "assay_type": "cell-based"}, "in vivo": {"experiment": "in vivo", "procedure": "In order to define the appropriate doses for in vivo experimentation, the maximum tolerated dose (MTD) was determined. Nu/Nu nude mice were treated in groups of 6 per dose level with increasing doses of BDA-366 (10-50 mg/kg/d) intraperitoneally (i.p.) for up to 12 days. […] Standard single-dose MTD treatment in normal C57BL/6 mice were measured. […] 10% of single dose MTD can usually be considered as the maximum therapeutic dose (30˜40 mg/kg) for continuous treatment."}, "[8]": {"tested_on": "H460 or DMS53 cells expressing Bcl2 shRNA transfected with AAAA Bcl2 mutant", "experiment": "rescue of Bcl2-silenced cells with AAAA Bcl2 mutant", "assay_type": "cell-based", "conditions": "72 h", "text": "Whether expression of exogenous Bcl2 can restore the sensitivity of Bcl2-silenced lung cancer cells to BDA-2 and whether the BDA-2/BH4 binding is important for such effect was examined. WT and BDA-2 binding deficient D10A/N11A/R12A/E13A (AAAA) Bcl2 mutant cDNA in pCIneo or vector-only control were transfected into H460 or DMS53 cells expressing Bcl2 shRNA. It has been reported that if the shRNA is directed to the 3′ UTR or 5′ UTR of the gene, the effect of the shRNA1 can be rescued by ectopically expressing the protein using the wild-type or mutant cDNA. Because Bcl2 shRNA1 targets the 5′UTR of endogenous Bcl2, the silencing effect of shRNA1 on Bcl2 expression could be rescued by transfection of exogenous WT or AAAA Bcl2 mutant. After transfection, cells were treated with BDA-2 or the BH3 mimetic ABT-199 at the indicated concentrations for 72 h. […] The apoptotic effect of BDA-2 on lung cancer cells requires its BH4 binding."}, "H460 cells [9]": {"tested_on": "H460 cells", "experiment": "H460 cells: Bcl2/BH3 immunofluorescence, Bcl2 expression, mitochondrial dysfunction", "assay_type": "cell-based"}}, "note": "Read-outs that look alike come from different tables or passages of the source.", "data": [{"smiles": "CCN(CC)CC(O)CNc1ccc(NCC2CO2)c2c1C(=O)c1ccccc1C2=O", "note": "(centres unmarked) [BDA-366, 1-((3-(diethylamino)-2-hydroxypropyl)amino)-4-((oxiran-2-ylmethyl)amino)anthracene-9,10-dione]", "values": [{"measurement": "6A7 binding to Bax (active form of Bax) in tumor tissues", "setting": "[1]", "value": "increased level of 6A7 binding to Bax"}, {"measurement": "exposure of the Bcl2 BH3 domain in tumor tissues", "setting": "[1]", "value": "dose-dependent exposure of the Bcl2 BH3 domain in tumor tissues"}, {"measurement": "total Bcl2 and Bax levels in tumor tissues", "setting": "[1]", "value": "no significant changes in total Bcl2 and Bax levels"}, {"measurement": "direct induction of Bcl2 conformational change (BH3 exposure)", "setting": "[2]", "value": "enhanced the ability of the Bcl2/BH3 domain-specific antibody to bind Bcl2"}, {"measurement": "binding to Bcl-XL", "setting": "Bcl-XL", "value": "failed to bind"}, {"measurement": "binding to Bcl-XL", "setting": "Bcl-XL; listed as BDA-2", "value": "did not bind"}, {"measurement": "Ki", "setting": "[3]", "value": "0.93 ± 0.08", "unit": "nM"}, {"measurement": "binding to single-site Bcl2 mutants", "setting": "[4]", "value": "did not significantly reduce Bcl2's ability to bind BDA-2"}, {"measurement": "levels of LC3-II", "setting": "H460 cells [5]; 1 μM, 24 h", "value": "Increased levels of LC3-II"}, {"measurement": "percentage of GFP-LC3vac cells", "setting": "H460 cells [5]; compared to DMSO control", "value": "significantly increases"}, {"measurement": "growth of SCLC cell lines", "setting": "SCLC cell lines", "value": "efficiently suppressed growth of SCLC cell lines"}, {"measurement": "Cyt c release from isolated mitochondria", "setting": "[6]; WT Bcl2, 1 μM, 30 min at 30° C.", "value": "induced Cyt c release"}, {"measurement": "Bcl2 conformational change and Bax activation", "setting": "[6]; cells or isolated mitochondria containing WT Bcl2", "value": "induced Bcl2 conformational change in association with Bax activation"}, {"measurement": "Bcl2 conformational change and Bax activation", "setting": "[6]; ΔBH3 Bcl2 mutant or vector-only control", "value": "not"}, {"measurement": "binding to Bfl-1/A1", "setting": "Bfl-1/A1", "value": "failed to bind"}, {"measurement": "binding to Bfl-1/A1", "setting": "Bfl-1/A1; listed as BDA-2", "value": "did not bind"}, {"measurement": "binding to Mc1-1", "setting": "Mc1-1", "value": "failed to bind"}, {"measurement": "binding to Mc1-1", "setting": "Mc1-1; listed as BDA-2", "value": "did not bind"}, {"measurement": "sensitivity of normal cells", "setting": "[7]", "value": "less sensitive"}, {"measurement": "time to death of mice", "setting": "in vivo; C57BL/6, mouse, 400 mg/kg", "value": 4, "unit": "days"}, {"measurement": "MTD", "setting": "in vivo; C57BL/6, mouse, maximum therapeutic dose for continuous treatment (10% of single dose MTD)", "value": "30 to 40", "unit": "mg/kg"}, {"measurement": "MTD", "setting": "in vivo; C57BL/6, mouse, single dose MTD", "value": "300 to 400", "unit": "mg/kg"}, {"measurement": "ALT and AST", "setting": "in vivo; mouse, 400 mg/kg", "value": "significantly enhanced"}, {"measurement": "pathological analysis for all organs", "setting": "in vivo; mouse, 400 mg/kg", "value": "microsteatosis in the liver and atrophic white pulp in the spleen"}, {"measurement": "weight loss or other toxicities (hematologic, liver and kidney functions)", "setting": "in vivo; mouse, ip, 300 mg/kg", "value": "did not cause weight loss or other toxicities"}, {"measurement": "sensitivity of cells restored after expression of AAAA Bcl2", "setting": "[8]", "value": "not"}, {"measurement": "Bcl2 expression level", "setting": "H460 cells [9]", "value": "did not significantly affect Bcl2 expression level"}, {"measurement": "Bcl2 immunofluorescence with Bcl2/BH3-domain specific antibody", "setting": "H460 cells [9]", "value": "enhanced significantly"}, {"measurement": "mitochondrial dysfunction and apoptosis", "setting": "H460 cells [9]; MitoSOX red staining, Cyt c release, PARP cleavage", "value": "resulted in mitochondrial dysfunction"}]}]}
